#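 Where inhibition never reached the appropriate level, the endpoint shown equals the highest concentration tested. Otherwise, values were interpolated linearly from a five-concentration, 48-hour dose response in 96-well plates. Here, GI50 denotes the concentration required for 50% inhibition of growth.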 Active and inactive are the calls of the source. Cut-off read from the data, not from the text of the source: active = GI50 up to about 1.1 µM and inactive = higher.
# Columns and labels:
# Experiment in all cases: growth of human tumour cells (NCI), 48 h
# SNB-75 = test system: SNB-75
# HCT-15 = test system: HCT-15
# NCI-H226 = test system: NCI-H226
# KM12 = test system: KM12
# UO-31 = test system: UO-31
# PC-3 = test system: PC-3
# HCC 2998 = test system: HCC 2998
# CCRF-CEM = test system: CCRF-CEM
# HOP-92 = test system: HOP-92
# CAKI-1 = test system: CAKI-1
# SR = test system: SR
# SW-620 = test system: SW-620
# MDA-MB-435 = test system: MDA-MB-435
# Hs-578T = test system: Hs-578T
# SF-539 = test system: SF-539
# RXF 393 = test system: RXF 393
# SK-MEL-2 = test system: SK-MEL-2
# SK-OV-3 = test system: SK-OV-3
# SN12C = test system: SN12C
# COLO 205 = test system: COLO 205
# MOLT-4 = test system: MOLT-4
# M14 = test system: M14
# UACC-62 = test system: UACC-62
# OVCAR-4 = test system: OVCAR-4
# TK-10 = test system: TK-10
# ACHN = test system: ACHN
# SK-MEL-28 = test system: SK-MEL-28
# LOX IMVI = test system: LOX IMVI
# MDA-MB-231 = test system: MDA-MB-231
# NCI/ADR-RES = test system: NCI/ADR-RES
# MDA-N = test system: MDA-N
# T47D = test system: T47D
# HCT-116 = test system: HCT-116
# DU-145 = test system: DU-145
# BT-549 = test system: BT-549
# OVCAR-5 = test system: OVCAR-5
# HT-29 = test system: HT-29
# K562 = test system: K562
# NCI-H23 = test system: NCI-H23
# SK-MEL-5 = test system: SK-MEL-5
# Malme-3M = test system: Malme-3M
# OVCAR-8 = test system: OVCAR-8
# U-251 = test system: U-251
# IGROV-1 = test system: IGROV-1
# HL-60 = test system: HL-60
# EKVX = test system: EKVX
# SF-295 = test system: SF-295
# A498 = test system: A498
# UACC-257 = test system: UACC-257
# HOP-62 = test system: HOP-62
# NCI-H522 = test system: NCI-H522
# A549 = test system: A549
# SF-268 = test system: SF-268
# 786-0 = test system: 786-0
# SNB-19 = test system: SNB-19
# NCI-H460 = test system: NCI-H460
# OVCAR-3 = test system: OVCAR-3
smiles,measurement,setting,value
CN(CCCNC(=O)c1cn(C)c2c1ccc1cc(Cl)ccc12)CCCNC(=O)c1cn(C)c2c1ccc1cc(Cl)ccc12,GI50,SNB-75,1570 nM (inactive)
same,GI50,HCT-15,1780 nM
same,GI50,NCI-H226,20600 nM (inactive)
same,GI50,KM12,1720 nM (inactive)
same,GI50,UO-31,1410 nM (inactive)
same,GI50,PC-3,1780 nM (inactive)
same,GI50,HCC 2998,1200 nM (inactive)
same,GI50,CCRF-CEM,1230 nM (inactive)
same,GI50,HOP-92,3600 nM (inactive)
same,GI50,CAKI-1,2300 nM (inactive)
same,GI50,SR,2540 nM (inactive)
same,GI50,SW-620,1620 nM (inactive)
same,GI50,MDA-MB-435,1710 nM (inactive)
same,GI50,Hs-578T,1830 nM (inactive)
same,GI50,SF-539,1990 nM (inactive)
same,GI50,RXF 393,1300 nM (inactive)
same,GI50,SK-MEL-2,1690 nM (inactive)
same,GI50,SK-OV-3,1820 nM (inactive)
same,GI50,SN12C,1870 nM (inactive)
same,GI50,COLO 205,1470 nM (inactive)
same,GI50,MOLT-4,1730 nM (inactive)
same,GI50,M14,1850 nM (inactive)
same,GI50,UACC-62,1840 nM (inactive)
same,GI50,OVCAR-4,2520 nM (inactive)
same,GI50,TK-10,2470 nM (inactive)
same,GI50,ACHN,1710 nM (inactive)
same,GI50,SK-MEL-28,1730 nM (inactive)
same,GI50,LOX IMVI,1640 nM (inactive)
same,GI50,MDA-MB-231,1750 nM (inactive)
same,GI50,NCI/ADR-RES,2160 nM (inactive)
same,GI50,MDA-N,2230 nM (inactive)
same,GI50,T47D,1800 nM (inactive)
same,GI50,HCT-116,1880 nM (inactive)
same,GI50,DU-145,1890 nM (inactive)
same,GI50,BT-549,8990 nM (inactive)
same,GI50,OVCAR-5,3090 nM (inactive)
same,GI50,HT-29,2050 nM (inactive)
same,GI50,K562,1970 nM (inactive)
same,GI50,NCI-H23,3910 nM (inactive)
same,GI50,SK-MEL-5,4990 nM (inactive)
same,GI50,Malme-3M,2520 nM (inactive)
same,GI50,OVCAR-8,1820 nM (inactive)
same,GI50,U-251,1710 nM (inactive)
same,GI50,IGROV-1,1460 nM (inactive)
same,GI50,HL-60,914 nM (active)
same,GI50,EKVX,2330 nM (inactive)
same,GI50,SF-295,2000 nM (inactive)
same,GI50,A498,5860 nM (inactive)
same,GI50,UACC-257,2190 nM (inactive)
same,GI50,HOP-62,1650 nM (inactive)
same,GI50,NCI-H522,1750 nM (inactive)
same,GI50,A549,2060 nM (inactive)
same,GI50,SF-268,1720 nM (inactive)
same,GI50,786-0,1650 nM (inactive)
same,GI50,SNB-19,2390 nM (inactive)
same,GI50,NCI-H460,1560 nM (inactive)
same,GI50,OVCAR-3,1900 nM (inactive)

# From ChEMBL document CHEMBL1201862, “PubChem BioAssay data set” (2004)
